In patent publication US20250304549A1, “HYDROXYAMIDE DERIVATIVE AND USE THEREOF” (SICHUAN HUIYU PHARMACEUTICAL CO., LTD., priority 2022, published 2025) one finds IC50 data, which are given here for 14 compounds.

Assay [1] relates to NCI-H1417 cells. The assay is described as follows: In vitro cell inhibition assay - H1417 cell proliferation (CellTiter-Glo). The assay is classed as cell-based. The conditions noted are these: Homo sapiens, NCI-H1417, H1417 small cell lung cancer cell proliferation. The gist of the method: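 Cells exposed to 8 compound concentrations (5-fold dilutions) in BEGM with 10% FBS for 7 days at 37° C., 5% CO2. Viable cells measured by CellTiter-Glo luminescence; inhibition versus no-inhibitor and no-cell controls, IC50 fitted.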
(Cellular ATP, detected with luciferase, serves as a proxy for viable cell number.)

In assay [2] the test system is NCI-H69 cells. Put plainly: In vitro cell inhibition assay - NCI-H69 cell proliferation (CellTiter-Glo). The assay is classed as cell-based. The settings on record: Homo sapiens, NCI-H69, H69 small cell lung cancer cell proliferation. The gist of the method:
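Cells seeded at 1×10^3 per well and incubated overnight at 37° C., 5% CO2, then treated with 8-point 5-fold compound dilutions in RPMI-640 with 20% FBS for 7 days. Viable cells measured by CellTiter-Glo luminescence; IC50 fitted from inhibition relative to no-inhibitor and no-cell controls.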

For assay [3], the system named is DU145 cells. Put plainly: In vitro cell inhibition assay - DU145 cell proliferation (CellTiter-Glo). In kind it is cell-based. The conditions noted are these: Homo sapiens, DU-145, Du145 prostate cancer cell proliferation. The gist of the method:
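DU145 cells were seeded at 1×10^3 per well, exposed next day to an 8-point, 5-fold compound dilution series in RPMI-640 with 10% FBS, and incubated 6 days at 37° C. Viable cells were measured by CellTiter-Glo luminescence, and IC50 was fitted from inhibition rates relative to no-inhibitor and no-cell controls.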

Assay [4] has as its system NCI-H526 cells. The assay is described as follows: In vitro cell inhibition assay - NCI-H526 cell proliferation (CellTiter-Glo). The assay is classed as cell-based. The settings on record: Homo sapiens, NCI-H526, 120 h, H526 small cell lung cancer cell proliferation, 5 days. The gist of the method:
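NCI-H526 cells plated at 1×10^3 per well overnight, then treated with 8 concentrations (5-fold dilutions) in RPMI-640 with 10% FBS for 5 days at 37° C., 5% CO2. Viable cells quantified by CellTiter-Glo luminescence; IC50 fitted from inhibition rates relative to no-inhibitor and no-cell controls.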

The target in assay [5] is LSD1 (Homo sapiens (Human), UniProt O60341). Put plainly: In vitro enzyme inhibition assay - LSD1 (HTRF). In kind it is biochemical.
The target in assay [6] is pan-HDAC. Put plainly: In vitro enzyme inhibition assay - HDAC (HDAC-Glo I/II), pan-HDAC. In kind it is biochemical. The gist of the method:
(§1)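 Eight compound concentrations (5-fold steps from a 1 mM DMSO stock) tested against pan-HDAC, HDAC1 and HDAC8 with HDAC-Glo I/II reagents, luminescence read-out. Percent inhibition normalized to no-inhibitor and no-enzyme wells; IC50 derived by four-parameter logistic fit.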

The target of assay [7] is HDAC8 (Homo sapiens (Human), UniProt Q9BY41). The assay is described as follows: In vitro enzyme inhibition assay - HDAC (HDAC-Glo I/II), HDAC8. The settings on record: read-out: HDAC IC50 (nM) HDAC 8. In kind it is biochemical. The gist of the method:
as §1

Counter-ions that a name gives are not always drawn.

Chain of HDAC8 (Q9BY41 whole entry): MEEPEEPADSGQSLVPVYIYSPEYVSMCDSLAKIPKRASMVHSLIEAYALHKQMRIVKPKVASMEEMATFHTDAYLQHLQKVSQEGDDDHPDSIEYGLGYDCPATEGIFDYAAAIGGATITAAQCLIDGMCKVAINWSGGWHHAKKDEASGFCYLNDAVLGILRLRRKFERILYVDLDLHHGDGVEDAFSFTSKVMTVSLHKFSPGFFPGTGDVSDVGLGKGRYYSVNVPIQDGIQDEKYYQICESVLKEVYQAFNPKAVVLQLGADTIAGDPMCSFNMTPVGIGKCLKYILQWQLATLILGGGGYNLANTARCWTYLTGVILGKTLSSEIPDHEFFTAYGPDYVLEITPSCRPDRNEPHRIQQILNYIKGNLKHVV

On to `COc1ccc(-c2cnc(N3CCC(NCc4ccc(/C=C/C(=O)NO)cc4)CC3)c(F)c2-c2ccc(C#N)c(F)c2)cc1O` [Example 76, (E)-3-(4-(((1-(4-(4-cyano-3-fluorophenyl)-3-fluoro-5-(3-hydroxy-4-methoxyphenyl)pyridin-2-yl)piperidin-4-yl)amino)methyl)phenyl)-N-hydroxyacrylamide formate], for which the half-inhibitory concentration (IC50) (commonly the concentration at which inhibition is half-maximal) in assay [1] was 0.0117 µM; in assay [2], 0.00396 µM; in assay [3], 0.011 µM; in assay [4] it was 0.00827 µM.
Consider `N#Cc1ccc(-c2c(-c3ccc(/C=C/C(=O)NO)c(O)c3)cnc(N3CCC(NCc4ccc(/C=C/C(=O)NO)cc4)CC3)c2C#N)cc1F` [Example 90], for which the IC50 in assay [1] was found to be 0.042 µM; in assay [2], 0.00649 µM; in assay [3] it was 0.0453 µM; in assay [4] it was 0.0346 µM.
On to `COc1ccc(-c2cnc(N3CCC(NCCc4ccc(CC(=O)NO)cc4)CC3)c(C#N)c2-c2ccc(C#N)c(F)c2)cc1O` [Example 120, 2-(4-(2-((1-(3-Cyano-4-(4-cyano-3-fluorophenyl)-5-(3-hydroxy-4-methoxyphenyl)pyridin-2-yl)piperidin-4-yl)amino)ethyl)phenyl)-N-hydroxyacetamide formate], for which the IC50 came out at 0.00033 µM in assay [5]; 1310 nM in assay [6]; 1950 nM in assay [7]; 0.0111 µM in assay [1]; 0.938 µM in assay [2]; 3.77 µM in assay [3].
As for `COc1ccc(-c2cnc(N3CCC(NCC4CCN(c5ccc(C(=O)NO)cc5)CC4)CC3)c(C#N)c2-c2ccc(C#N)c(F)c2)cc1O` [Example 121, 4-(4-((1-(3-Cyano-4-(4-cyano-3-fluorophenyl)-5-(3-hydroxy-4-methoxyphenyl)pyridin-2-yl)piperidin-4-yl)amino)methyl) piperidin-1-yl)-N-hydroxybenzamide formate], the IC50 came out at 0.00035 µM in assay [5]; 404 nM in assay [6]; 17.2 nM in assay [7]; 0.0156 µM in assay [1]; 0.127 µM in assay [2]; 2.22 µM in assay [3].
For the compound `COc1ccc(-c2cnc(N3CCC(NCCCc4ncc(C(=O)NO)s4)CC3)c(C#N)c2-c2ccc(C#N)c(F)c2)cc1O` [Example 125, 2-(3-(3-Cyano-4-(4-cyano-3-fluorophenyl)-5-(3-hydroxy-4-methoxyphenyl)pyridin-2-yl)piperidin-4-yl)amino)propyl)-N-hydroxythiazole-5-carboxamide formate], the IC50 in assay [5] came to 0.00074 µM; in assay [6] it was 226 nM; in assay [7], 23.4 nM; in assay [1] it was 0.012 µM; in assay [2] it was 1.95 µM; in assay [3], 3.04 µM.
Regarding `COc1ccc(-c2cnc(N3CCC(NCc4ccc(OCC(=O)NO)c(OC)c4)CC3)c(C#N)c2-c2ccc(C#N)c(F)c2)cc1O` [Example 128, 2-(4-((1-(3-Cyano-4-(4-cyano-3-fluorophenyl)-5-(3-hydroxy-4-methoxyphenyl)pyridin-2-yl)piperidin-4-yl)amino)methyl)-2-methoxyphenoxy)-N-hydroxyacetamide formate], the IC50 in assay [5] was determined as 0.00039 µM; in assay [6], 5 nM; in assay [7], 223 nM; in assay [1], 0.00201 µM; in assay [2] it was 0.13 µM; in assay [3], 0.239 µM.
Consider `N#Cc1ccc(-c2c(-c3ccc(C(F)(F)F)c(O)c3)cnc(N3CCC(NCc4ccc(/C=C/C(=O)NO)cc4)CC3)c2C#N)cc1F` [Example 129, (E)-3-(4-(1-(3-Cyano-4-(4-cyano-3-fluorophenyl)-5-(3-hydroxy-4-(trifluoromethyl)phenyl)pyridin-2-yl)piperidin-4-yl)amino)methyl) phenyl)-N-hydroxyacrylamide formate], for which the IC50 in assay [5] was found to be 0.00147 µM; in assay [6], 18.2 nM; in assay [7], 322 nM; in assay [1], 0.00438 µM; in assay [2], 0.0258 µM; in assay [3], 0.0869 µM.
On to `COc1ccc(-c2cnc(N3CCC(NCc4ccc(/C=C/C(=O)NO)cc4OC)CC3)c(C#N)c2-c2ccc(C#N)c(F)c2)cc1O` [Example 132, (E)-3-(4-(((1-(3-Cyano-4-(4-cyano-3-fluorophenyl)-5-(3-hydroxy-4-methoxyphenyl)pyridin-2-yl)piperidin-4-yl)amino)methyl)-3-methoxyphenyl)-N-hydroxyacrylamide formate], for which the IC50 in assay [5] is 0.0108 µM; in assay [6], 3.86 nM; in assay [7], 171 nM; in assay [1], 0.0132 µM; in assay [2] it was 0.103 µM; in assay [3], 0.235 µM.
On to `Cn1cnc2cc(-c3cnc(N4CCC(NCc5ccc(/C=C/C(=O)NO)cc5)CC4)c(C#N)c3-c3ccc(C#N)c(F)c3)ccc21` [Example 136, (E)-3-(4-(((1-(3-Cyano-4-(4-cyano-3-fluorophenyl)-5-(1-methyl-1H-benzo[d]imidazol-5-yl))pyridin-2-yl)piperidin-4-yl)amino)methyl) phenyl)-N-hydroxyacrylamide formate], for which the IC50 in assay [5] came to 0.0172 µM; in assay [6], 10.4 nM; in assay [7] it was 77.7 nM; in assay [1], 0.0291 µM; in assay [2] it was 0.0937 µM; in assay [3], 0.364 µM.
On to `COc1ccc(-c2cnc(N3CCC4(CC3)CN(Cc3ccc(/C=C/C(=O)NO)cc3)C4)c(C#N)c2-c2ccc(C#N)c(F)c2)cc1O` [Example 138, (E)-3-(4-(((7-(3-Cyano-4-(4-cyano-3-fluorophenyl)-5-(3-hydroxy-4-methoxyphenyl)pyridin-2-yl)-2,7-diazaspiro[3.5]nonan-2-yl)methyl)phenyl)-N-hydroxyacrylamide formate], for which the IC50 is 0.0214 µM in assay [5]; 61 nM in assay [6]; 401 nM in assay [7]; 0.0307 µM in assay [1]; 0.0916 µM in assay [2]; 0.372 µM in assay [3].
Regarding `N#Cc1ccc(-c2c(-c3ccc(OC(F)F)c(O)c3)cnc(N3CCC(NCc4cnc(/C=C/C(=O)NO)nc4)CC3)c2C#N)cc1F` [Example 145, (E)-3-(5-(((1-(3-Cyano-4-(4-cyano-3-fluorophenyl)-5-(4-(difluoromethoxy)-3-hydroxyphenyl)pyridin-2-yl)piperidin-4-yl)amino)methyl)pyrimidin-2-yl)-N-hydroxyacrylamide formate], the IC50 in assay [5] came to 0.00335 µM; in assay [6], 5.23 nM; in assay [7] it was 74.9 nM; in assay [1], 0.0186 µM; in assay [2], 0.0393 µM; in assay [3], 0.0378 µM.
Regarding `COc1ccc(-c2cnc(N3CCC(NCc4ncc(/C=C/C(=O)NO)s4)CC3)c(C#N)c2-c2ccc(C#N)c(F)c2)cc1O` [Example 151, (E)-3-(2-(((1-(3-Cyano-4-(4-cyano-3-fluorophenyl)-5-(3-hydroxy-4-methoxyphenyl)pyridin-2-yl)piperidin-4-yl)amino)methyl)thiazol-5-yl)-N-hydroxyacrylamide hydrochloride], the IC50 in assay [5] is 0.0027 µM; in assay [6], 27.4 nM; in assay [7], 618 nM; in assay [1] it was 0.0104 µM; in assay [2] it was 0.189 µM; in assay [3], 0.308 µM.
On to `COc1ccc(-c2cnc(N3CCC(NCc4cnc(CCC(=O)NO)nc4)CC3)c(C#N)c2-c2ccc(C#N)c(F)c2)cc1O` [Example 152, 3-(5-((1-(3-Cyano-4-(4-cyano-3-fluorophenyl)-5-(3-hydroxy-4-methoxyphenyl)pyridin-2-yl)piperidin-4-yl)amino)methyl) pyrimidin-2-yl)-N-hydroxypropanamide hydrochloride], for which the IC50 is 0.00115 µM in assay [5]; 2.57 nM in assay [6]; 131 nM in assay [7]; 0.00491 µM in assay [1]; 0.208 µM in assay [2]; 0.223 µM in assay [3].
On to `COc1ccc(-c2cnc(N3CCC(NC(=O)CCCCCCC(=O)NO)CC3)c(C#N)c2-c2ccc(C#N)c(F)c2)cc1O` [Example 177, N^1-(1-(3-Cyano-4-(4-cyano-3-fluorophenyl)-5-(3-hydroxy-4-methoxyphenyl)pyridin-2-yl)piperidin-4-yl)-N^8-hydroxyoctanediamide formate], for which the half-inhibitory concentration (IC50) in assay [5] worked out at 0.963 µM; in assay [6] it was 40.2 nM; in assay [7], 581 nM; in assay [1], 0.00074 µM; in assay [2], 0.639 µM; in assay [3], 2.03 µM.
